Test results reported in patent EP0147851B1, “Water soluble forms of polyene antibiotics, and process for preparing them” (priority 1983, dated 1985).
Read-outs that look alike come from different tables or passages of the source.

What was measured:
[1] = Solubility of Amphotericin B in aqueous γ-CD solutions (spectrophotometric); format: physicochemical; details: for Amphotericin B Konzentration: 37 °C, 2 Stunden geschüttelt
Protocol: Das ist ein weiterer Beweis dafür, daß das Amphotericin in den γ-CD-haltigen wäßrigen Lösungen in molekular disperser Form vorliegt.
Auch für Amphotericin B wurde die Löslichkeit als Funktion der γ-CD-Konzentration ermittelt. Zu wäßrigen γ-CD-Lösungen unterschiedlicher Konzentration (0, 2, 4, 5, 6, 8, 10 beziehungsweise 12 %) wurden 5 mg/ml Amphotericin B gegeben, und die bei 37 °C thermostatisierten Lösungen wurden 2 Stunden lang intensiv geschüttelt. Die Lösungen wurden klarfiltriert, und die Menge des in Lösung gegangenen Amphotericin B wurde spektrophotometrisch bestimmt. Die Ergebnisse sind in der Tabelle 3 zusammengestellt.

[2] = test system: aus menschlichem Blut hergestellten Suspensionen roter Blutkörperchen; details: cited from earlier work
[3] = test system: aus menschlichem Blut hergestellten Suspensionen roter Blutkörperchen; details: human
Text: Dyn. 6, 408-414 [1983]) untersucht. Die Ergebnisse werden in Form der zu 50 %iger Hämolyse gehörenden Konzentrationen (EH₅₀) angegeben. […] Auch die hämolytische Wirkung einer der im Komplex gebundenen γ-CD-Menge entsprechenden Menge γ-Cyclodextrin wurde untersucht.

Weibliche CFY-Ratten = experiment: Mortality after subcutaneous administration in rats; format: in vivo; details: subcutan, 302 mg/kg, 10 Tiere, observation one week
Text: • a) Die Resorption von Nystatin aus per os verabreichtem Nystatin-γ-CD-Komplex Die Resorption des Wirkstoffes wurde an Mäusen, an einem durch intravenöse Applikation einer Suspension von Candida albicans hervorgerufenen Sepsismodell untersucht. Die Sepsis verursachte innerhalb von 2-3 Tagen 100 %ige Mortalität. Den Versuchstieren wurde per os gemäß Beispiel 3 hergestellte, 8 % Nystatin enthaltende Komplex verabreicht. In einem Parallelversuch wurde Nystatin intravenös appliziert. Für beide Gruppen wurde die auf die unbehandelte Kontrolle bezogene Verlängerung der Überlebensdauer ermittelt. [formula] Wenn man diejenigen in Form des Komplexes per os verabreichten Nystatindosen mit denjenigen i.v. applizierten Nystatindosen vergleicht, die eine etwa gleiche Verlängerung der Überlebensdauer bewirkten (Tabelle 9, letzte Spalte),so läßt sich errechnen, daß aus dem Komplex durchschnittlich 6,2 % des Wirkstoffes in die Blutbahn gelangten. Bei den höchsten Dosen (i.v. 1,56 mg/kg, p.o. 25 mg/kg) ist das Zurückfallen der Überlebensdauer bereits auf die schwache Toxizität des Nystatins zurückzuführen. • b) Die Resorption von Nystatin aus subcutan appliziertem Nystatin-γ-CD-Komplex Weibliche CFY-Ratten eines durchschnittlichen Gewichtes von 180 g wurden mit Nystatin, mit Nystatin-γ-CD-Komplex (Wirkstoffgehalt9 8 %) beziehungsweise mit γ-CD behandelt. […]

[4] = Heat and storage stability of the solid substances (spectrophotometric content); format: physicochemical; details: 60 °C, 24 Stunden, not protected from light or air
Protocol: Zur Untersuchung der Wärmestabilität des Flavofungin-γ-CD-Komplexes wurden die Substanzen in 1 mm Schichtdicke auf Uhrgläsern ausgebreitet und weder vor Licht noch vor Luft geschützt bei Raumtemperatur beziehungsweise bei 60 °C im Trockenschrank gelagert. Die zu unterschiedlichen Zeitpunkten genommenen Proben wurden spektrophotometrisch analysiert.
Der Wirkstoffgehalt des Flavofungin-γ-CD-Komplexes blieb jedoch auch nach 50 Tagen zu etwa 75 % erhalten. Ein 10 % Flavofungin enthaltendes, mit Glucose bereitetes physikalisches Gemisch verlor bei 14tägiger Lagerung bei Raumtemperatur 50 % seines Wirkstoffgehaltes. Der Wirkstoffgehalt des Komplexes war jedoch auch nach 50 Tagen noch zu mehr als 95 % erhalten. Die in einem verschlossenen Gefäß bei +4 °C 7 Monate lang gelagerte Probe zeigte keinen Verlust an Wirkstoff. Die Meßergebnisse sind in der Tabelle 4 zusammengestellt.
(§1) Auch mit diesem Produkt wird die im Beispiel 1 beschriebene Untersuchung der Wärmestabilität vorgenommen. Dabei wurde gefunden, daß der Komplex, ähnlich wie der lyophilisierte Komplex, eine erhöhte Wärmestabilität zeigt und seine antifungale Wirkung nicht geringer wird.

[5] = Raumtemperatur an der Luft, innerhalb von zwei Wochen; cited from earlier work
[6] = Solubility of Flavofungin in aqueous γ-CD solutions (spectrophotometric); format: physicochemical; details: 4 % γ-CD versus water
Protocol: Der erste Beweis für die Wechselwirkung zwischen Flavofungin und γ-Cyclodextrin ist der beträchtliche Anstieg der Löslichkeit des Flavofungins in wäßrigen γ-Cyclodextrinlösungen. Zur Untersuchung der Löslichkeit wurden wäßrige γ-CD-Lösungen unterschiedlicher Konzentration hergestellt: die Lösungen enthielten 0, 1, 2, 3, 4, 5, 7,5 beziehungsweise 10 % γ-CD. Zu je 1 ml der Lösungen wurden 5 mg festes Flavofungin gegeben. Die Lösungen wurden bei 25 °C 3 Stunden lang intensiv geschüttelt.
Die Lösungen wurden klarfiltriert, dann wurde spektrophotometrisch die Menge des in Lösung gegangenen Flavofungins ermittelt. Die Messungen zeigten, daß sich das Flavofungin am besten in 4 % γ-CD enthaltenden wäßrigen Lösungen löst; unter den Bedingungen der Untersuchung können Konzentrationen von etwa 4 mg/ml erzielt werden. […] Eine weitere Erhöhung der γ-CD-Konzentration steigert die Löslichkeit des Flavofungins nicht weiter. Die Ergebnisse der Löslichkeitsuntersuchungen sind in der Tabelle 1 zusammengefaßt.
Die aus dem anfänglich linearen Abschnitt der bei 25 °C aufgenommenen Löslichkeitsisotherme berechnete scheinbare Stabilitätskonstante des Komplexes beträgt etwa 3230.
Die maximale Löslichkeit in 4 %iger γ-CD-Lösung wurde auch bei verschiedenen Temperaturen untersucht. Die Flavofunginkonzentration betrug bei 10 °C 3,3 mg/ml, bei 30 °C 4,1 mg/ml und bei 40 °C 3,8 mg/ml.

[7] = test system: S. oerevisiae, C. albicans, C. crusei und C. pseudotropicals; experiment: Microbiological potency after storage (MIC); format: cell-based; details: sample stored under nitrogen in the freezer
Protocol: Auch die mikrobiologische Wertmessung bestätigte, daß das Flavofungin in Form des γ-CD-Komplexes viel stabiler ist. Flavofungin-γ-CD-Komplex wurde bei Raumtemperatur und bei 60°C gelagert, und danach war die antifungale Wirkung genau so groß wie ursprünglich.
as §1

Mäusen = details: i.p. an Mäusen; cited from earlier work

C[C@@H]1[C@H](O)[C@@H](C)/C=C/C=C/C=C/C=C/C=C/C=C/C=C/[C@H](O[C@@H]2O[C@H](C)[C@@H](O)[C@H](N)[C@@H]2O)C[C@@H]2O[C@](O)(C[C@@H](O)C[C@@H](O)[C@H](O)CC[C@@H](O)C[C@@H](O)CC(=O)O[C@H]1C)C[C@H](O)[C@H]2C(=O)O [Amphotericin B]
Löslichkeit relative to Löslichkeit in Wasser ([1]; 5 %ige γ-CD-Lösung): etwa das Hundertfache | Löslichkeit relative to Löslichkeit in Wasser ([1]; 10 %ige γ-CD-Lösung): etwa das Zweihundertfache | Löslichkeit in γ-CD-haltigen Lösungen on addition of salt ([1]; Zusatz von 0,9 Gew.-% Kochsalz): nicht verändert | Amphotericin B Konzentration ([1]; γ-CD-Konzentration 0 %): 0,003 mg/ml | Amphotericin B Konzentration ([1]; γ-CD-Konzentration 2 %): 0,12 mg/ml | Amphotericin B Konzentration ([1]; γ-CD-Konzentration 4 %): 0,25 mg/ml | Amphotericin B Konzentration ([1]; γ-CD-Konzentration 5 %): 0,30 mg/ml | Amphotericin B Konzentration ([1]; γ-CD-Konzentration 6 %): 0,36 mg/ml | Amphotericin B Konzentration ([1]; γ-CD-Konzentration 8 %): 0,51 mg/ml | Amphotericin B Konzentration ([1]; γ-CD-Konzentration 10 %): 0,65 mg/ml | Amphotericin B Konzentration ([1]; γ-CD-Konzentration 12 %): 0,65 mg/ml | EH₅₀ (concentration for 50 % haemolysis) [2]: 5 µg/mL | EH₅₀ (concentration for 50 % haemolysis) [3]: 4,8 µg/ml | Hämolyse ([3]; 25 µg/ml): 92,4%

OC[C@H]1O[C@@H]2O[C@H]3[C@H](O)[C@@H](O)[C@@H](O[C@H]4[C@H](O)[C@@H](O)[C@@H](O[C@H]5[C@H](O)[C@@H](O)[C@@H](O[C@H]6[C@H](O)[C@@H](O)[C@@H](O[C@H]7[C@H](O)[C@@H](O)[C@@H](O[C@H]8[C@H](O)[C@@H](O)[C@@H](O[C@H]9[C@H](O)[C@@H](O)[C@@H](O[C@H]1[C@H](O)[C@H]2O)O[C@@H]9CO)O[C@@H]8CO)O[C@@H]7CO)O[C@@H]6CO)O[C@@H]5CO)O[C@@H]4CO)O[C@@H]3CO [γ-CD, γ-Cyclodextrin]
Mortalität (animals that died) (Weibliche CFY-Ratten): kein einziges

Flavofungin
Zersetzung of the solid [4]: starke Zersetzung | Verlust der Aktivität [5]: 50% | Anstieg der Löslichkeit [6]: etwa das Achtzigfache | MIC [7]: 25 µg/mL

Methylester von Amphotericin B
LD₅₀ (Mäusen): 1320 mg/kg
